Assays:
AMPKα1β1γ1 = biological target: T1, AMPKα1β1γ1 (Homo sapiens, UniProt Q13131+Q9Y478); test: AMPKα1β1γ1 biochemical assay (LabChip EZ Reader mobility shift); conditions: EC50 of Table 1; activation, normalized to DMSO vehicle control; read-out: Human AMPK AMPKα1β1γ1 EC50
T1 construct: purchased Carna Biosciences 02-113
Procedure: (§1) Compounds disclosed herein were evaluated for their ability to activate AMPKα1β1γ1 by measuring phosphorylation of a commercially available fluorescent AMPK substrate using the LabChip® EZ Reader microfluidic system that is based on a mobility shift principle in which unphosphorylated fluorescent substrates may be separated and distinguished from phosphorylated fluorescent substrates due to the difference in negative charge. Briefly, compounds were serial diluted 3-fold in 100% DMSO for an 11-point dose-response curve. A 20 nL aliquot of diluted compound was transferred into a 384-well plate using a liquid handler (Labcyte Inc., Echo 550). A pre-prepared solution (10 mM MgCl2, 0.01% Brij-35, 2 mM DTT, 0.05% BSA, 1 mM EGTA, and 50 mM HEPES pH 7.5) was combined with 0.83 nM AMPKα1β1γ1 (Carna Biosciences, 02-113). The enzyme solution (15 μL) was aliquoted into each well and the plate was incubated at 24° C. for 30 min. A second stock solution (10 mM MgCl2, 0.01% Brij-35, 2 mM DTT, 0.05% BSA, 1 mM EGTA, 800 μM ATP, and 50 mM HEPES pH 7.5) was combined with 6 μM fluorescent peptide substrate for AMPKal (Perkin Elmer, 760351). The kinase reaction was initiated by adding 5 μL of the second solution containing substrate and ATP to each well. The plate was incubated at 24° C. for 90 minutes and 75 μL of 0.5 M EDTA was added to terminate the reaction. The plates were analyzed using a LabChip® EZ Reader (Perkin Elmer, 122919) and the effective concentration to achieve 50% of the maximal activity (EC50) was calculated after normalizing to the DMSO vehicle control.

AMPKα1β2γ1 = biological target: T2, AMPKα1β2γ1 (Homo sapiens, UniProt O43741+Q13131); test: AMPKα1β2γ1 biochemical assay (LabChip EZ Reader mobility shift); conditions: second EC50 column of Table 1 (head repeats α1β1γ1; text says α1β2γ1 isoform); read-out: Human AMPK AMPKα1β1γ1 EC50
T2 construct: purchased Carna Biosciences (printed only as 'Biosciences') 02-147
Procedure: as §1
The same procedure above was also used to measure activation of the AMPKα1β2γ1 isoform, replacing AMPKα1β1γ1 with AMPKα1β2γ1 Biosciences 02-147).

[1] = system: orthologous mouse model of ADPKD; conditions: cited from earlier work
high fat diet mice = conditions: cited from earlier work
[2] = system: miniature pig model of ADPKD; conditions: cited from earlier work
[3] = system: ZSF1 rat model of diabetic nephropathy; conditions: cited from earlier work
[4] = system: Pkd1 knockout mouse model of ADPKD; conditions: orthologous Pkd1 knockout mouse model of ADPKD; cited from earlier work
Wistar Han rats = conditions: 14 days of treatment in Wistar Han rats; cited from earlier work
[5] = ZSF1 progressive rat model of diabetic nephropathy

T1 sequence (Q13131 whole entry): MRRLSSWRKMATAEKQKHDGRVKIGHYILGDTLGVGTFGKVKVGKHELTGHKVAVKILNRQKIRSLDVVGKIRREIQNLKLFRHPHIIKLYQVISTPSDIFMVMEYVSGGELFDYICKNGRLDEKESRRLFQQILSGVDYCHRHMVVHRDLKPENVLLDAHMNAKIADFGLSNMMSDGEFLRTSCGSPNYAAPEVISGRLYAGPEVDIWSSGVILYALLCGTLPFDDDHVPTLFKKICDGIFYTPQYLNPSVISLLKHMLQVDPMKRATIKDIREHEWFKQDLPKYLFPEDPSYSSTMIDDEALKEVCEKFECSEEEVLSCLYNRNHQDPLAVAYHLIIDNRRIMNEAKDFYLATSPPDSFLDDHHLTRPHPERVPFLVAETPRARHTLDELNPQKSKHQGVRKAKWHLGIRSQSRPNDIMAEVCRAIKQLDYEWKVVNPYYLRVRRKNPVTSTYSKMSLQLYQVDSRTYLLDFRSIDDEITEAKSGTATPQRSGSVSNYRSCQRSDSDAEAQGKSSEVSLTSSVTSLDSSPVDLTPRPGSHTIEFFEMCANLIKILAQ
T1 sequence (Q9Y478 whole entry): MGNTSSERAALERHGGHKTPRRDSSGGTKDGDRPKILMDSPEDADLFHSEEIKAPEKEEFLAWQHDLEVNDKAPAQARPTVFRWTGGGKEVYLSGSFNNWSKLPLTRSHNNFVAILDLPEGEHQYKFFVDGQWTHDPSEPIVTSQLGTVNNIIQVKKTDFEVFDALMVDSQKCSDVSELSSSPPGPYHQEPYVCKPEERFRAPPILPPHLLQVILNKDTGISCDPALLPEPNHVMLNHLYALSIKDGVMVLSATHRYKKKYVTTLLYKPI
T1 sequence (P54619 whole entry partner): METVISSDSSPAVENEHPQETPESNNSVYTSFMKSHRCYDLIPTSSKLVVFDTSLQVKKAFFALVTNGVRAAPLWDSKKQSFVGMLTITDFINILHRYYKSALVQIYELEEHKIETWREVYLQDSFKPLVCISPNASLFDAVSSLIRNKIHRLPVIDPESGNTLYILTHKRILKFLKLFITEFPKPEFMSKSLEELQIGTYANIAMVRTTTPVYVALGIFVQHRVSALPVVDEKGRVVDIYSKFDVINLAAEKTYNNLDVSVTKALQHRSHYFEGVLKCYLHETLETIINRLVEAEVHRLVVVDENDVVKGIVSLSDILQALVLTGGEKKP
T2 sequence (Q13131 whole entry, canonical isoform): as the sequence (Q13131 whole entry) above
T2 sequence (O43741 whole entry, canonical isoform): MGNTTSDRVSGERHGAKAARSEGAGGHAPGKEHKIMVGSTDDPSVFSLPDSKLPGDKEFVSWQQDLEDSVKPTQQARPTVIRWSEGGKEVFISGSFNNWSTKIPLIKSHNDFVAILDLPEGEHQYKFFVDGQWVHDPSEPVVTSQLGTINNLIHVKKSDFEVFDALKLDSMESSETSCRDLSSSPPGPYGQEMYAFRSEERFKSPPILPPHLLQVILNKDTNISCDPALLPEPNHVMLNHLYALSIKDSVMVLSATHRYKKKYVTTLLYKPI
T2 sequence (P54619 whole entry partner, canonical isoform): as the sequence (P54619 whole entry partner) above

Compound | EC50 (AMPKα1β1γ1) [nM] | EC50 (AMPKα1β2γ1) [nM] | other results
COc1nc(N2C[C@H]3COC[C@H]3C2)ccc1-c1cc2c(C(=O)O)c[nH]c2cc1Cl [Example 27, 6-chloro-5-(2-methoxy-6-((cis)-tetrahydro-1H-furo[3,4-c]pyrrol-5(3H)-yl)pyridin-3-yl)-1H-indole-3-carboxylic Acid] | 50 to 100 | > 10000 | –
COc1nc(N2C[C@@H]3COC[C@H]3C2)ccc1-c1cc2c(C(=O)O)c[nH]c2cc1Cl [Example 33, 6-chloro-5-(2-methoxy-6-((3aR, 6aR)-tetrahydro-1H-furo[3,4-c]pyrrol-5(3H)-yl)pyridin-3-yl)-1H-indole-3-carboxylic acid] | ≤ 50 | 250 to 10000 | –
COc1nc(N2C[C@H]3COC[C@@H]3C2)ccc1-c1cc2c(C(=O)O)c[nH]c2cc1Cl [Example 34, 6-chloro-5-(2-methoxy-6-((3aS,6aS)-tetrahydro-1H-furo[3,4-c]pyrrol-5(3H)-yl)pyridin-3-yl)-1H-indole-3-carboxylic acid] | ≤ 50 | 250 to 10000 | –
COc1nc(N2C[C@H]3CN(C(C)=O)C[C@H]3C2)ccc1-c1cc2c(C(=O)O)c[nH]c2cc1Cl [Example 38, 5-(6-((3aR,6aS)-5-acetylhexahydropyrrolo [3,4-c]pyrrol-2(1H)-yl)-2-methoxypyridin-3-yl)-6-chloro-1H-indole-3-carboxylic acid] | ≤ 50 | 250 to 10000 | –
COc1nc(N2CC3(COC3)C2)ccc1-c1c(F)cc2[nH]cc(C(=O)O)c2c1F [Example 41, 4,6-difluoro-5-(2-methoxy-6-(2-oxa-6-azaspiro[3.3]heptan-6-yl)pyridin-3-yl)-1H-indole-3-carboxylic acid] | ≤ 50 | > 10000 | –
CN(C)C(=N)N=C(N)N [Metformin] | – | – | cystic kidney disease [1]: attenuate cystic kidney disease; high fat diet-induced metabolic derangement and renal injury (high fat diet mice): reduce high fat diet-induced metabolic derangement and renal injury; cystic kidney disease [2]: attenuate cystic kidney disease
O=C(O)c1c[nH]c2cc(Cl)c(-c3ccc(C4(O)CCC4)cc3)cc12 [PF-06409577] | – | – | proteinuria ([3]; ZSF1 rat model of diabetic nephropathy): reduced proteinuria
O=C(Oc1ccccc1C(=O)O)c1ccccc1O [salsalate] | – | – | cystic disease severity [4]: attenuate cystic disease severity
MK-8722 | – | – | cardiac glycogen levels (Wistar Han rats): increased cardiac glycogen levels; cardiac hypertrophy (Wistar Han rats): significant cardiac hypertrophy; proteinuria, glomerular filtration rate, and kidney fibrosis [3, 5]: significant improvements; renal protection [3, 5]: renal protective

— patent US20220339144A1, “PYRIDINYL INDOLE COMPOUNDS AND METHODS OF USE THEREOF” (Chinook Therapeutics Canada, Inc., priority 2021, published 2022)
